In ChEMBL document CHEMBL1149441, “Cyclopropylamino acid amide as a pharmacophoric replacement for 2,3-diaminopyridine. Application to the design of novel bradykinin B1 receptor antagonists” (J Med Chem, 2006):

How the values were obtained:
B2 bradykinin receptor = biological target: T1, B2 bradykinin receptor (Homo sapiens, UniProt P30411); assay: Binding affinity to bradykinin B2 receptor
T1 sequence (P30411 whole entry): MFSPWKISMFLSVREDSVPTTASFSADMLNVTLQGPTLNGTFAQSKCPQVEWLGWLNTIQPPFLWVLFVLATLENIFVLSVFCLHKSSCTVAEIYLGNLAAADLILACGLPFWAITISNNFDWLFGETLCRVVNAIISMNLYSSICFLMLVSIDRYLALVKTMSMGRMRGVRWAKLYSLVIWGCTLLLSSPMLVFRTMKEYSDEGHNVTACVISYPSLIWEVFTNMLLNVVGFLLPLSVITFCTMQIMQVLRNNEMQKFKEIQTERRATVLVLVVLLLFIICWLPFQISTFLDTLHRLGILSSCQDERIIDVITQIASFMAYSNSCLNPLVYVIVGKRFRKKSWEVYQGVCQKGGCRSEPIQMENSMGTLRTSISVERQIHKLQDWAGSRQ

[1] = Half life in iv dosed rat; assay type: ADME, organism-based; details: in vivo
B1 bradykinin receptor = biological target: T2, B1 bradykinin receptor (Homo sapiens, UniProt P46663); assay: Binding affinity to human bradykinin B1 receptor expressed in CHO cells; assay type: cell-based
T2 sequence (P46663 whole entry): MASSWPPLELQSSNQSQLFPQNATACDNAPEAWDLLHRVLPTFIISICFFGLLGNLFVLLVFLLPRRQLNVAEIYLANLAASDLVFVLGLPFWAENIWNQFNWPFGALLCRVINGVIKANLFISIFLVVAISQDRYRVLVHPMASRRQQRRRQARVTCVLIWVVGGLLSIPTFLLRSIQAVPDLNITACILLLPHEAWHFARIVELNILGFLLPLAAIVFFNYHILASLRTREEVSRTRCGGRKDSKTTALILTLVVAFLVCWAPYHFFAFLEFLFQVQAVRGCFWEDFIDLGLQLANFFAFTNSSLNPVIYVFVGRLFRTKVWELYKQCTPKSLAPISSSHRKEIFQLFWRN

[2] = Clearance in iv dosed rat; assay type: ADME, organism-based; details: in vivo
[3] = Oral bioavailability in rat; assay type: ADME, organism-based; details: in vivo

| Compound | Ki (B2 bradykinin receptor) [µM] | half-life [1] [h] | Ki (B1 bradykinin receptor) [µM] | clearance [2] [mL/min/kg] | bioavailability [3] [%] |
| --- | --- | --- | --- | --- | --- |
| COC(=O)c1ccccc1-c1ccc(CNC(=O)C2(NC(=O)c3cncnc3)CC2)cc1 | > 10 | – | 0.0255 | – | – |
| COC(=O)c1ccccc1-c1ccc(CNC(=O)CNC(=O)CC(F)(F)F)cc1 | > 10 | – | 52 | – | – |
| COC(=O)c1ccccc1-c1ccc(CNC(=O)C2(NC(=O)CC(F)(F)F)CCC2)cc1 | > 10 | – | 0.119 | – | – |
| COC(=O)c1ccccc1-c1ccc(CNC(=O)[C@H](C)NC(=O)CC(F)(F)F)cc1 | > 10 | – | > 50 | – | – |

Continued, values first:

| Ki (B2 bradykinin receptor) [µM] | half-life [1] [h] | Ki (B1 bradykinin receptor) [µM] | clearance [2] [mL/min/kg] | bioavailability [3] [%] | Compound |
| --- | --- | --- | --- | --- | --- |
| > 10 | 0.15 | – | – | – | COC(=O)c1ccccc1-c1ccc(CNc2ncccc2NC(=O)CC(F)(F)F)cc1 |
| > 10 | – | 0.0018 | – | – | COC(=O)c1ccccc1-c1ccc(CNC(=O)C2(NC(=O)c3cncc(C(F)(F)F)c3)CC2)cc1 |
| > 10 | 12 | 0.752 | 2.6 | 25 | COC(=O)c1ccccc1-c1ccc(CNC(=O)C2(NC(=O)CC(F)(F)F)CCCCC2)cc1 |
| > 10 | – | 0.462 | – | – | COC(=O)c1ccccc1-c1ccc(CNC(=O)C2(NC(=O)CC(F)(F)F)CCCC2)cc1 |
| > 10 | – | 1.58 | – | – | COC(=O)c1ccccc1-c1ccc(CNC(=O)[C@@H](C)NC(=O)CC(F)(F)F)cc1 |
| > 10 | 6.6 | – | 4.2 | 35 | COC(=O)c1ccccc1-c1ccc(CNC(=O)C(C)(C)NC(=O)CC(F)(F)F)cc1 |
| > 10 | 9.5 | – | 9.3 | 26 | COC(=O)c1ccccc1-c1ccc(CNC(=O)C2(NC(=O)CC(F)(F)F)CC2)cc1 |
